Assays:
S. aureus RN4220 [1] = assay: Resazurin broth microdilution assay (resazurin vitality assay); type: cell-based, Staphylococcus aureus; conditions: for MIC: RP-HPLC purified fractions, MIC = concentration giving ≥ 90% inhibition of growth by fluorometric reading, range 9.8 to 625 µg/mL, 1 h at 37 °C, then resazurin 1.5 h, triplicate, independent duplicate experiments; for IC50: derived from sigmoidal dose-response curves (GraphPad Prism, nonlinear regression, best-fit)
Description: The RP-HPLC purified fractions were tested for antibacterial activity using a broth microdilution assay coupled with the metabolic dye, resazurin[20] against S. aureus RN4220. The principle of the assay was based on the rate of reduction of the resazurin dye to resorufin, with survival of the cell equated to an increased conversion of this dye, while a decreased rate of conversion indicates impairment of cellular metabolism and was thus equated to cell death. Briefly, the test strain was inoculated into 10 mL of cation adjusted-Mueller Hinton broth (Sigma-Aldrich) (CA-MHB containing […]) and incubated at 37 °C for 18 to 24 h. Following overnight incubation, the culture was diluted into the respective media and grown to mid-log phase to obtain an optical density (OD) at 0.3 (± 1.4 × 10^8 cells mL^-1) determined at 600 nm.
The RP-HPLC fractions were then diluted in MeCN to a concentration of […]. Fifty microlitres of each fraction was dispensed into the first row of the respective wells of a clear Greiner CELLSTAR® 96-well culture plate (Merck, Johannesburg, South Africa) containing 50 μL of analytical quality H2O, in triplicate. A microdilution was performed in the 96-well culture in 50 μL of sterile analytical quality H2O in each well and the plate was dried at 50 °C for 18 to 24 h to remove the solvent. Thereafter, 10 μL of target cells in mid-log phase at the adjusted OD was dispensed into each well, resulting in a final antimicrobial concentration range of each fraction from 9.8 to 625 µg/mL and incubated for 1 h at 37 °C. After 1 h incubation, 90 μL of phosphate buffered saline (PBS) was added to each well, followed by 10 μL of resazurin [prepared to a stock solution 0.3 mg/mL in PBS; Sigma-Aldrich (St Louis, MO, USA)]. The plate was then incubated at 37 °C for 1.5 h. Finally, fluorometric readings of the plate were conducted using a Tecan Spark 10 M Multimode Microplate Reader at 560 nm excitation wavelength and 590 nm emission wavelength. Sterile broth and the OD adjusted inoculum were included in the assay as a positive control, while sterile broth was included as a negative control. Tests were performed in triplicate, with independent duplicate experiments.
The percentage inhibition was calculated as described by van Rensburg et al.[20]. […] The MIC vs retention time was plotted using Graphpad Prism version 3.01 for Windows [GraphPad Software, San Diego, USA (www.graphpad.com)].

S. aureus RN4220 [2] = assay: Membrane permeability assay: propidium iodide uptake; type: cell-based, Staphylococcus aureus; conditions: PI 10 µg/mL; for Time to two-fold increase in PI fluorescence from the initial reading: at MIC; for PI fluorescence (membrane permeabilisation): ½MIC and MIC, read over 60 min
Description: To gain insight into whether stephensiolides and glucosamine derivatives cause increased membrane permeability by forming lesions within the cell membrane of S. aureus, membrane permeability was assessed by monitoring the influx of propidium iodide (PI) and subsequent staining of nucleic acids within the cell, resulting in a fluorescent signal[23],[24]. Fluorescence was measured for 1 h at the MIC and ½MIC of compounds 12, 14, 22 and 26 (Fig. 5a and b).
The membrane permeability capabilities of GluA, GluC, StpK and StpU on S. aureus RN4220 was determined using propidium iodide (PI) (Sigma-Aldrich; St. Louis, MO, USA)[23]. This fluorescent dye can only enter bacterial cells through membrane lesions that are big enough to allow the large molecule (PI has a molecular mass of 668.087 g/mol) to pass through, thus providing an indication of changes in membrane permeability. Briefly, black Greiner CELLSTAR 96-well plates (Merck, Johannesburg, South Africa) were prepared with the selected four compounds at MIC and ½MIC and dried as described in the “Resazurin Broth Microdilution Assay” section. The S. aureus RN4220 strain was prepared in CA-MHB and grown to mid-log phase (OD600 of 0.5–0.6) and diluted to OD600 of 0.3. Propidium iodide (stock concentration of 1 mg/mL in water) was added to the cell suspension to a final concentration of 10 µg/mL and cells were incubated in the dark at room temperature for 10 min. Thereafter, 100 µL of OD adjusted PI cells in mid-log phase was dispensed into each well. Sterile broth and the OD adjusted inoculum with PI were included as a positive control, while sterile broth with PI was included as a negative control. Melittin served as a positive lytic control. Fluorometric readings of the plate were conducted in 2 min intervals over 60 min (readings began 120 s after cells were added to the compounds) using a Tecan Spark at 535 nm excitation wavelength and 617 nm emission wavelength.

S. aureus RN4220 [3] = assay: Membrane depolarisation assay: DiSC3(5); type: cell-based, Staphylococcus aureus; conditions: for Time to membrane depolarisation / Time to two-fold increase in DiSC3(5) fluorescent signal: at MIC; for Time to membrane depolarisation: DiSC3(5) assay; for Time to two-fold increase in DiSC3(5) fluorescent signal: from the initial reading at 120 s; for DiSC3(5) fluorescence (membrane depolarisation): ½MIC, MIC and two-fold MIC, DiSC3(5) 0.4 µM, read over 12 min
Description: To gain insight into whether stephensiolides and glucosamine derivatives cause membrane depolarisation of S. aureus, membrane potential was assessed by monitoring the release of the voltage-sensitive dye 3,3′-dipropylthiadicarbocyanine iodide [DiSC3(5)][25],[26].
The membrane depolarisation capabilities (ability to disrupt membrane potential) of GluA, GluC, StpK and StpU against S. aureus RN4220 was determined using the voltage-sensitive fluorescent probe, 3,3'-dipropylthiadicarbocyanine iodide [DiSC3(5)][25],[39]. Due to the cationic charge and hydrophobic nature of DiSC3(5), the fluorescent dye can penetrate and accumulate in lipid bilayers until Nernstian equilibrium is reached, resulting in the quenching of the fluorescent signal. Once depolarisation occurs (i.e., changes in ion permeability and dissipating transmembrane potential), the dye is rapidly released into the medium and subsequently results in the dequenching of the fluorescent signal. Briefly, black 96 well plates were prepared with the selected four compounds at two-fold MIC, MIC and ½MIC as described in the “Resazurin Broth Microdilution Assay” section. The S. aureus RN4220 strain was prepared in CA-MHB and grown to mid-log phase to obtain an OD600 of 0.5–0.6. Cells were harvested by centrifugation at 3000 rpm for 10 min and resuspended in HEPES buffer (5 mM, pH 7.4, containing 20 mM glucose; 100 mM KCl) to OD600 of 0.05. Thereafter, DiSC3(5) (stock concentration of 400 µM in 100% DMSO) was added to the cell suspension to a final concentration of 0.4 µM and cells were incubated in the dark at room temperature for 60 min. Cell suspensions (100 µL) were then dispensed into the wells of the 96 well plate containing the compounds. Sterile broth and the OD adjusted inoculum with DiSC3(5) were included as a non-fluorescent control, sterile broth with DiSC3(5) was included as a sterility control, and melittin was included as membrane depolarisation control. Fluorometric readings of the plate were conducted in 2 min intervals over 12 min (readings began 120 s after cells were added to the compounds) using a Tecan Spark at 622 nm excitation wavelength and 670 nm emission wavelength.

[4] = UPLC C18 retention time used as measure of hydrophobicity; type: physicochemical; conditions: chromatographic; UPLC-MS of NP10 crude extract; C18 Acquity UPLC HSS T3 1.8 μm, 2.1 × 150 mm; H2O/MeCN with 0.1% formic acid; 40 to 95% B from 0.5 to 15 min; 0.300 mL/min
Description: The pooled NP10 crude extract was analysed using UPLC-MS^E at the Liquid Chromatography Mass Spectrometry (LCMS) unit at the Central Analytical Facility (CAF, SU) as outlined in Clements-Decker et al.[4]. Briefly, the UPLC-MS^E was conducted on a Waters Synapt G2 high resolution mass spectrometer linked to an Acquity UPLC™ (Waters Corporation, Milford, USA). Three microlitres (1.00 mg/mL) was separated on an UPLC C18 reverse-phase analytical column (Acquity UPLC® HSS T3, 1.8 μm particle size, 2.1 × 150 mm, Waters Corporation, Dublin, Ireland). The UPLC was conducted with analytical quality H2O containing 0.1% (v/v) formic acid as solution A and MeCN containing 0.1% (v/v) formic acid as solution B at a flow rate of 0.300 mL/min as follows: 60% A from 0 to 0.5 min for loading, linear gradient from 40 to 95% (B) from 0.5 to 15 min and 95 to 40% (B) from 15 to 18 min. The positive mode ESI conditions included: 2.5 kV capillary voltage, 15 V cone voltage, 120 °C source temperature, desolvation temperature of 275 °C, 50 L/h cone gas flow, 650 L/h desolvation gas flow, and m/z range of 200 to 2000 in centroid mode.

Substance | MIC (S. aureus RN4220 [1]) [µg/mL] | Rt (retention time, hydrophobicity) [4] [min] | other results
Stephensiolide K [Compound 14] | 39 | 10.37 | IC50 (S. aureus RN4220 [1]): 25 µg/mL; Time to two-fold increase in PI fluorescence from the initial reading (S. aureus RN4220 [2]): ≤ 36 min; PI fluorescence (membrane permeabilisation) (S. aureus RN4220 [2]): induced an increase in PI fluorescence over time; Time to membrane depolarisation (S. aureus RN4220 [3]): ≤ 12 min; Time to two-fold increase in DiSC3(5) fluorescent signal (S. aureus RN4220 [3]): 720 s; DiSC3(5) fluorescence (membrane depolarisation) (S. aureus RN4220 [3]): induced an increase in DiSC3(5) fluorescence at all concentrations tested
Stephensiolide L [Compound 1] |  | 5.46 | 
Stephensiolide M [Compound 2] |  | 6.45 | 
Stephensiolide N [Compound 3] | ≥ 300 | 7.17 | 
Stephensiolide O [Compound 6] |  | 6.28 | 
Stephensiolide P [Compound 7] |  | 7.00 | 
Stephensiolide Q [Compound 8] | ≥ 300 | 8.09 | 
Stephensiolide R [Compound 9] | ≥ 300 | 8.79 | 
Stephensiolide S [Compound 10] |  | 8.01 | 
Stephensiolide T [Compound 11] | ≥ 300 | 8.92 | MIC (S. aureus RN4220 [1]; listed as StpT): no activity observed
Stephensiolide U [Compound 12] | 78 | 9.57 | IC50 (S. aureus RN4220 [1]): 53 µg/mL; Time to two-fold increase in PI fluorescence from the initial reading (S. aureus RN4220 [2]): ≤ 28 min; PI fluorescence (membrane permeabilisation) (S. aureus RN4220 [2]): induced an increase in PI fluorescence over time; Time to membrane depolarisation (S. aureus RN4220 [3]): ≤ 8 min; Time to two-fold increase in DiSC3(5) fluorescent signal (S. aureus RN4220 [3]): 480 s; DiSC3(5) fluorescence (membrane depolarisation) (S. aureus RN4220 [3]): induced an increase in DiSC3(5) fluorescence at all concentrations tested
Stephensiolide V [Compound 13] |  | 9.74 | 
Stephensiolide W [Compound 15] |  | 10.31 | 
Stephensiolide X [Compound 16] |  | 10.87 | 
Stephensiolide Y [Compound 17] |  | 11.88 | 
melittin [reference compound] |  |  | PI fluorescence (membrane permeabilisation) (S. aureus RN4220 [2]): expected increase in fluorescence signal; Time to rapid depolarisation (control) (S. aureus RN4220 [3]; depolarisation control): ≤ 240 s

— publication PMC9911388, “Secondary metabolic profiling of Serratia marcescens NP10 reveals new stephensiolides and glucosamine derivatives with bacterial membrane activity” (Scientific Reports, 2023)
